Data: PubChem BioAssay (NCI)
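In this assay, cells in 96-well plates receive the compound at five concentrations for 48 hours. Endpoints are linearly interpolated between the surrounding concentrations. Abbreviation: GI50, concentration required for 50% inhibition of growth. TGI denotes the concentration required for complete inhibition of growth.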

What was measured:
Test in all cases: DTP human tumour cell line panel, 48 h
HCT-15 colon = system: HCT-15 colon
SN12C renal = system: SN12C renal
SF-295 CNS = system: SF-295 CNS
SNB-75 CNS = system: SNB-75 CNS
MDA-MB-435 = system: MDA-MB-435
SNB-19 CNS = system: SNB-19 CNS
EKVX NSCLC = system: EKVX NSCLC
HOP-62 NSCLC = system: HOP-62 NSCLC
CAKI-1 renal = system: CAKI-1 renal
NCI-H460 lung = system: NCI-H460 lung
DU-145 prostate = system: DU-145 prostate
A498 renal = system: A498 renal
BT-549 breast = system: BT-549 breast
TK-10 renal = system: TK-10 renal
SW-620 colon = system: SW-620 colon
K-562 leukemia = system: K-562 leukemia
A549 NSCLC = system: A549 NSCLC
SK-MEL-5 melanoma = system: SK-MEL-5 melanoma
NCI-H226 lung = system: NCI-H226 lung
HS 578T breast = system: HS 578T breast
NCI/ADR-RES ovarian = system: NCI/ADR-RES ovarian
LOX IMVI melanoma = system: LOX IMVI melanoma
OVCAR-5 ovarian = system: OVCAR-5 ovarian
SF-539 CNS = system: SF-539 CNS
SK-OV-3 ovarian = system: SK-OV-3 ovarian
SK-MEL-28 melanoma = system: SK-MEL-28 melanoma
M14 melanoma = system: M14 melanoma
PC-3 prostate = system: PC-3 prostate
COLO 205 colon = system: COLO 205 colon
UACC-62 melanoma = system: UACC-62 melanoma
MCF7 breast = system: MCF7 breast
MDA-MB-231 breast = system: MDA-MB-231 breast
IGROV1 ovarian = system: IGROV1 ovarian
HT29 colon = system: HT29 colon
SK-MEL-2 melanoma = system: SK-MEL-2 melanoma
RPMI-8226 leukemia = system: RPMI-8226 leukemia
SF-268 CNS = system: SF-268 CNS
UACC-257 melanoma = system: UACC-257 melanoma
HOP-92 NSCLC = system: HOP-92 NSCLC
KM12 colon = system: KM12 colon
HL-60(TB) leukemia = system: HL-60(TB) leukemia
786-0 renal = system: 786-0 renal
ACHN renal = system: ACHN renal
HCC-2998 colon = system: HCC-2998 colon
OVCAR-3 ovarian = system: OVCAR-3 ovarian
NCI-H522 lung = system: NCI-H522 lung
T-47D breast = system: T-47D breast
U251 CNS = system: U251 CNS
MOLT-4 leukemia = system: MOLT-4 leukemia
OVCAR-4 ovarian = system: OVCAR-4 ovarian
NCI-H23 lung = system: NCI-H23 lung
CCRF-CEM leukemia = system: CCRF-CEM leukemia
UO-31 renal = system: UO-31 renal
OVCAR-8 ovarian = system: OVCAR-8 ovarian

COc1cc(C(=O)O[C@H](C(=O)NCCCCNC(=O)[C@@H](OC(=O)c2cc(OC)cc3c(C)cccc23)[C@]2(C)CO2)[C@]2(C)CO2)c2cccc(C)c2c1
GI50 (HCT-15 colon): 104 nM | TGI (HCT-15 colon): 1180 nM | GI50 (SN12C renal): 885 nM | TGI (SN12C renal): 2390 nM | GI50 (SF-295 CNS): 122 nM | TGI (SF-295 CNS): 672 nM | GI50 (SNB-75 CNS): 114 nM | TGI (SNB-75 CNS): 373 nM | GI50 (MDA-MB-435): 144 nM | TGI (MDA-MB-435): 610 nM | GI50 (SNB-19 CNS): 201 nM | TGI (SNB-19 CNS): 2310 nM | GI50 (EKVX NSCLC): 227 nM | TGI (EKVX NSCLC): 2570 nM | TGI (HOP-62 NSCLC): 892 nM | GI50 (CAKI-1 renal): 12.2 nM | TGI (CAKI-1 renal): 98.6 nM | GI50 (NCI-H460 lung): < 35.4 nM | TGI (NCI-H460 lung): 228 nM | TGI (DU-145 prostate): 352 nM | GI50 (A498 renal): 2460 nM | TGI (A498 renal): 5.16 µM | GI50 (BT-549 breast): 305 nM | TGI (BT-549 breast): 5.53 µM | GI50 (TK-10 renal): 469 nM | TGI (TK-10 renal): 1360 nM | GI50 (SW-620 colon): < 11.1 nM | TGI (K-562 leukemia): 3.05 µM | GI50 (A549 NSCLC): 260 nM | TGI (A549 NSCLC): 699 nM | GI50 (SK-MEL-5 melanoma): 20.3 nM | TGI (SK-MEL-5 melanoma): 233 nM | GI50 (NCI-H226 lung): 620 nM | TGI (NCI-H226 lung): 2070 nM | GI50 (HS 578T breast): 479 nM | TGI (HS 578T breast): > 100 µM | GI50 (NCI/ADR-RES ovarian): 199 nM | TGI (NCI/ADR-RES ovarian): 904 nM | GI50 (LOX IMVI melanoma): < 10 nM | TGI (LOX IMVI melanoma): < 10 nM | GI50 (OVCAR-5 ovarian): 257 nM | TGI (OVCAR-5 ovarian): 1050 nM | GI50 (SF-539 CNS): < 38.5 nM | TGI (SF-539 CNS): 266 nM | GI50 (SK-OV-3 ovarian): 703 nM | TGI (SK-OV-3 ovarian): 6.19 µM | GI50 (SK-MEL-28 melanoma): 40.9 nM | TGI (SK-MEL-28 melanoma): 50 µM | GI50 (M14 melanoma): 76.9 nM | TGI (M14 melanoma): 591 nM | GI50 (PC-3 prostate): 114 nM | TGI (PC-3 prostate): 1500 nM | GI50 (COLO 205 colon): 111 nM | TGI (COLO 205 colon): 3.65 µM | GI50 (UACC-62 melanoma): 1500 nM | TGI (UACC-62 melanoma): 3.64 µM | GI50 (MCF7 breast): < 10 nM | TGI (MCF7 breast): < 35.5 nM | GI50 (MDA-MB-231 breast): 1850 nM | TGI (MDA-MB-231 breast): 5.48 µM | TGI (IGROV1 ovarian): 944 nM | GI50 (HT29 colon): 104 nM | TGI (HT29 colon): > 100 µM | GI50 (SK-MEL-2 melanoma): 72.4 nM | GI50 (RPMI-8226 leukemia): 195 nM | TGI (RPMI-8226 leukemia): 3.86 µM | GI50 (SF-268 CNS): 10.1 nM | TGI (SF-268 CNS): 61.9 nM | TGI (UACC-257 melanoma): 222 nM | GI50 (HOP-92 NSCLC): 45.2 nM | TGI (HOP-92 NSCLC): 220 nM | GI50 (KM12 colon): 139 nM | TGI (KM12 colon): 802 nM | GI50 (HL-60(TB) leukemia): < 10 nM | TGI (HL-60(TB) leukemia): < 10 nM | TGI (786-0 renal): 1250 nM | GI50 (ACHN renal): < 10 nM | TGI (ACHN renal): < 10 nM | GI50 (HCC-2998 colon): 44.2 nM | TGI (HCC-2998 colon): 343 nM | GI50 (OVCAR-3 ovarian): 207 nM | TGI (OVCAR-3 ovarian): 730 nM | GI50 (NCI-H522 lung): 20.7 nM | TGI (NCI-H522 lung): 10.9 µM | GI50 (T-47D breast): 253 nM | TGI (T-47D breast): 1740 nM | GI50 (U251 CNS): < 10 nM | TGI (U251 CNS): 107 nM | GI50 (MOLT-4 leukemia): < 10 nM | TGI (MOLT-4 leukemia): 676 nM | GI50 (OVCAR-4 ovarian): 218 nM | TGI (OVCAR-4 ovarian): 2080 nM | GI50 (NCI-H23 lung): < 10 nM | TGI (NCI-H23 lung): 118 nM | GI50 (CCRF-CEM leukemia): < 10 nM | TGI (CCRF-CEM leukemia): > 100 µM | GI50 (UO-31 renal): 466 nM | TGI (UO-31 renal): > 100 µM | GI50 (OVCAR-8 ovarian): 19.2 nM | TGI (OVCAR-8 ovarian): 206 nM
